Results published in patent US20230183237A1, “COMPETITIVE AND NONCOMPETITIVE INHIBITORS OF THE MUSCARINIC ACETYLCHOLINE RECEPTOR M5” (Vanderbilt University, priority 2020, published 2023).
Where two headings read alike, the source gives them in different places.

Target: T1, hM5 (Homo sapiens, UniProt P08912)
T1 construct: expressed in transfected cells
T1 sequence (P08912 1-532): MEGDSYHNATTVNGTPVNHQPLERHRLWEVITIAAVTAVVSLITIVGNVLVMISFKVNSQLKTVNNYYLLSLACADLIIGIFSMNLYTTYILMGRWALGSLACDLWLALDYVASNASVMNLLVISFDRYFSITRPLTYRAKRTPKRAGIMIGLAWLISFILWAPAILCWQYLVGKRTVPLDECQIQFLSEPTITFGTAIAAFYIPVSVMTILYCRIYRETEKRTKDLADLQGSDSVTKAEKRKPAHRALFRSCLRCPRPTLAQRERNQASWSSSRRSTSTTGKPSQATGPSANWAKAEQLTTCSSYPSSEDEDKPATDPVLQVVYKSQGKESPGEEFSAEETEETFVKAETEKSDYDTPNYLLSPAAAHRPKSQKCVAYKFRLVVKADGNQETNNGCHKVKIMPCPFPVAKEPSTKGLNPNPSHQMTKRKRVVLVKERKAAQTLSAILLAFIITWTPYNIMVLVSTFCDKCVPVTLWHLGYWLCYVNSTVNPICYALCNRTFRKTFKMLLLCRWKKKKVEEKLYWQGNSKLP
Test: Calcium mobilization concentration-response (IC50 vs EC80 acetylcholine), CHO hM5
Type: cell-based
Conditions: CELL LINE hM5, read-out: IC50
Procedure, shortened: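 CHO cells stably expressing hM5, dye-loaded, in HBSS/20 mM HEPES/2.5 mM probenecid, pH 7.4. Compounds were pre-incubated 140 s before an EC80 acetylcholine challenge, with calcium flux read kinetically.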

[1] = calcium mobilization, EC80 acetylcholine addition

| SMILES | IC50 [1] [nM] | IC50 (vs EC80 acetylcholine) [nM] |
| --- | --- | --- |
| COc1ccc(S(=O)(=O)N2CCC(c3nn4ccnc4cc3C)CC2)cn1 [Compound 42, 6-(1-((6-methoxypyridin-3-yl)sulfonyl)piperidin-4-yl)-7-methylimidazo[1,2-b]pyridazine] | > 10000 |  |
| Cc1cc2ncnn2cc1C1CCN(S(=O)(=O)c2ccc3ncn(C)c3c2)CC1 [Compound 188, 7-methyl-6-(1-((1-methyl-1H-benzo[d]imidazol-6-yl)sulfonyl)piperidin-4-yl)-[1,2,4]triazolo[1,5-a]pyridine] | 105 |  |
| Cc1cc2ncnn2cc1C1CCN(S(=O)(=O)c2cnc3n2CCC3)CC1 [Compound 219, 6-(1-((6,7-dihydro-5H-pyrrolo[1,2-a]imidazol-3-yl)sulfonyl)piperidin-4-yl)-7-methyl-[1,2,4]triazolo[1,5-a]pyridine] | > 10000 |  |
| Cc1cc2ncnn2cc1C1CCN(S(=O)(=O)c2ccsc2)CC1 [Compound 125, 7-methyl-6-(1-(thiophen-3-ylsulfonyl)piperidin-4-yl)-[1,2,4]triazolo[1,5-a]pyridine] | > 10000 |  |
| Cc1cc2ncnn2cc1[C@@H]1CCN(S(=O)(=O)c2cnn(C)c2C)C[C@H]1O (racemic) [Compound 197, (rac)-trans-1-((1,5-dimethyl-1H-pyrazol-4-yl)sulfonyl)-4-(7-methyl-[1,2,4]triazolo[1,5-a]pyridin-6-yl)piperidin-3-ol] | 594 |  |
| Cc1ncc(S(=O)(=O)N2CC=C(c3cc4ncnn4cc3Cl)CC2)n1C [Compound 223, 6-chloro-7-(1-((1,2-dimethyl-1H-imidazol-5-yl)sulfonyl)-1,2,3,6-tetrahydropyridin-4-yl)-[1,2,4]triazolo[1,5-a]pyridine] | 660 |  |
| O=S(=O)(c1ccc2c(c1)CCO2)N1CCC(c2cn3ccnc3cn2)CC1 [Compound 27, 6-(1-((2,3-dihydrobenzofuran-5-yl)sulfonyl)piperidin-4-yl)imidazo[1,2-a]pyrazine] | > 10000 |  |
| Cc1cc(C2CCN(S(=O)(=O)c3cnn(C)c3C)CC2)cn2ncnc12 [Compound 199, 6-(1-((1,5-dimethyl-1H-pyrazol-4-yl)sulfonyl)piperidin-4-yl)-8-methyl-[1,2,4]triazolo[1,5-a]pyridine] | > 10000 |  |
| O=S(=O)(c1cnn2c1CCCC2)N1CCC(c2cn3ncnc3cc2F)CC1 [Compound 237, 7-fluoro-6-(1-((4,5,6,7-tetrahydropyrazolo[1,5-a]pyridin-3-yl)sulfonyl)piperidin-4-yl)-[1,2,4]triazolo[1,5-a]pyridine] | 33 |  |
| Cc1cc2ncnn2cc1[C@@H]1CCN(S(=O)(=O)c2cnn(C)c2C)C[C@H]1F (racemic) [Compound 174, (rac)-6-(trans-1-((1,5-Dimethyl-1H-pyrazol-4-yl)sulfonyl)-3-fluoropiperidin-4-yl)-7-methyl-[1,2,4]triazolo[1,5-a]pyridine] | 20 |  |
| COc1cc2ncnn2cc1C1CCN(S(=O)(=O)c2cnn(C)c2C)CC1 [Compound 201, 6-(1-((1,5-dimethyl-1H-pyrazol-4-yl)sulfonyl)piperidin-4-yl)-7-methoxy-[1,2,4]triazolo[1,5-a]pyridine] | 765 |  |
| O=S(=O)(c1ccc2c(c1)CCO2)N1CCC(c2cc3cnccc3s2)CC1 [Compound 14, 2-(1-((2,3-dihydrobenzofuran-5-yl)sulfonyl)piperidin-4-yl)thieno[3,2-c]pyridine] | > 10000 |  |
| [2H]C1([2H])Oc2ccc(S(=O)(=O)N3CCC(c4cn5ncnc5cc4OC)CC3)cc2C1([2H])[2H] [Compound 92, 6-(1-((2,3-dihydrobenzofuran-5-yl-2,2,3,3-d4)sulfonyl)piperidin-4-yl)-7-methoxy-[1,2,4]triazolo[1,5-a]pyridine] | > 10000 |  |
| O=S(=O)(c1cc2c(cc1F)OCC2)N1CCC(c2ccc3ncnn3c2)CC1 [Compound 61, 6-(1-((6-fluoro-2,3-dihydrobenzofuran-5-yl)sulfonyl)piperidin-4-yl)-[1,2,4]triazolo[1,5-a]pyridine] | > 10000 |  |

The next lines start with the values.

| IC50 [1] [nM] | IC50 (vs EC80 acetylcholine) [nM] | SMILES |
| --- | --- | --- |
|  | > 10000 | Cn1cc(S(=O)(=O)N2CCC(c3cn4ncnc4cc3F)CC2)nn1 [Compound 571, 7-fluoro-6-(1-((1-methyl-1H-1,2,3-triazol-4-yl)sulfonyl)piperidin-4-yl)-[1,2,4]triazolo[1,5-a]pyridine] |
|  | 76 | Cc1ncc(S(=O)(=O)N2CCC(c3cn4ncnc4cc3C)CC2)o1 [Compound 492, 2-methyl-5-((4-(7-methyl-[1,2,4]triazolo[1,5-a]pyridin-6-yl)piperidin-1-yl)sulfonyl)oxazole] |
| 61 |  | Cc1nn(C)c(Cl)c1S(=O)(=O)N1CCC(c2cn3ncnc3cc2C(F)(F)F)CC1 [Compound 275, 6-(1-((5-chloro-1,3-dimethyl-1H-pyrazol-4-yl)sulfonyl)piperidin-4-yl)-7-(trifluoromethyl)-[1,2,4]triazolo[1,5-a]pyridine] |
| 34 |  | Cc1cc2nccn2nc1C1CCN(S(=O)(=O)c2cnn(C)c2C)CC1 [Compound 251, 6-(1-((1,5-dimethyl-1H-pyrazol-4-yl)sulfonyl)piperidin-4-yl)-7-methylimidazo[1,2-b]pyridazine] |
|  | 3840 | Cc1cc(C(F)(F)F)ncc1C1CCN(S(=O)(=O)c2ccc3c(c2)CCO3)CC1 [Compound 399, 5-(1-((2,3-dihydrobenzofuran-5-yl)sulfonyl)piperidin-4-yl)-4-methyl-2-(trifluoromethyl)pyridine] |
|  | 244 | Cc1cc2ncnn2cc1C1CCN(S(=O)(=O)c2cnn(C)c2OC(C)C)CC1 [Compound 603, 6-(1-((5-isopropoxy-1-methyl-1H-pyrazol-4-yl)sulfonyl)piperidin-4-yl)-7-methyl-[1,2,4]triazolo[1,5-a]pyridine] |
|  | 125 | [2H]C1([2H])CC(c2cn3ncnc3cc2F)CC([2H])([2H])N1S(=O)(=O)c1cnc2sccn12 [Compound 538, 5-((4-(7-fluoro-[1,2,4]triazolo[1,5-a]pyridin-6-yl)piperidin-1-yl-2,2,6,6-d4)sulfonyl)imidazo[2,1-b]thiazole] |
|  | > 10000 | Cc1cc2ncnn2cc1C1CCN(S(=O)(=O)c2cnn(C)c2C2CCNCC2)CC1 [Compound 577, 7-Methyl-6-(1-((1-methyl-5-(piperidin-4-yl)-1H-pyrazol-4-yl)sulfonyl)piperidin-4-yl)-[1,2,4]triazolo[1,5-a]pyridine] |
|  | 777 | Cn1ncc(S(=O)(=O)N2CCC(c3ccc4ncnn4c3)CC2)c1C#N [Compound 432, 4-((4-([1,2,4]triazolo[1,5-a]pyridin-6-yl)piperidin-1-yl)sulfonyl)-1-methyl-1H-pyrazole-5-carbonitrile] |
|  | 3100 | Cn1nc(-c2ccco2)cc1C1CCN(S(=O)(=O)c2cnn(C)c2Cl)CC1 [Compound 590, 1-((5-Chloro-1-methyl-1H-pyrazol-4-yl)sulfonyl)-4-(3-(furan-2-yl)-1-methyl-1H-pyrazol-5-yl)piperidine] |
| 17 |  | Cc1cc2nccn2nc1C1CCN(S(=O)(=O)c2cnn3c2CCC3)CC1 [Compound 246, 6-(1-((5,6-dihydro-4H-pyrrolo[1,2-b]pyrazol-3-yl)sulfonyl)piperidin-4-yl)-7-methylimidazo[1,2-b]pyridazine] |
|  | 1540 | Cc1cc(F)c(F)cc1C1=CCN(S(=O)(=O)c2cnn(C)c2C)CC1 [Compound 404, 4-(4,5-difluoro-2-methylphenyl)-1-((1,5-dimethyl-1H-pyrazol-4-yl)sulfonyl)-1,2,3,6-tetrahydropyridine] |
|  | 2110 | Cc1cc2ncnn2cc1C1(F)CCN(S(=O)(=O)c2cn(C)nn2)CC1 [Compound 588, 6-(4-fluoro-1-((1-methyl-1H-1,2,3-triazol-4-yl)sulfonyl)piperidin-4-yl)-7-methyl-[1,2,4]triazolo[1,5-a]pyridine] |
|  | 92 | [2H]C1([2H])CC(c2cn3ncnc3cc2F)CC([2H])([2H])N1S(=O)(=O)c1cnn(C)c1C(F)F [Compound 476, 6-(1-((5-(difluoromethyl)-1-methyl-1H-pyrazol-4-yl)sulfonyl)piperidin-4-yl-2,2,6,6-d4)-7-fluoro-[1,2,4]triazolo[1,5-a]pyridine] |
|  | 133 | Cc1cc2ncnn2nc1C1CCN(S(=O)(=O)c2cnc3sccn23)CC1 [Compound 535, 5-((4-(7-methyl-[1,2,4]triazolo[1,5-b]pyridazin-6-yl)piperidin-1-yl)sulfonyl)imidazo[2,1-b]thiazole] |
| 105 |  | Cc1cc2ncnn2cc1[C@@H]1CCN(S(=O)(=O)c2cnn3c2CCCC3)C[C@H]1O (racemic) [Compound 270, (rac)-trans-4-(7-methyl-[1,2,4]triazolo[1,5-a]pyridin-6-yl)-1-((4,5,6,7-tetrahydropyrazolo[1,5-a]pyridin-3-yl)sulfonyl)piperidin-3-ol] |
|  | 17 | Cc1cc(S(=O)(=O)N2CCC(c3cn4ncnc4c(F)c3C)CC2)sn1 [Compound 485, 5-((4-(8-fluoro-7-methyl-[1,2,4]triazolo[1,5-a]pyridin-6-yl)piperidin-1-yl)sulfonyl)-3-methylisothiazole] |
| 326 |  | Cc1c(C2CCN(S(=O)(=O)c3cnn(C(F)F)c3C)CC2)cn2ncnc2c1F [Compound 269, 6-(1-((1-(difluoromethyl)-5-methyl-1H-pyrazol-4-yl)sulfonyl)piperidin-4-yl)-8-fluoro-7-methyl-[1,2,4]triazolo[1,5-a]pyridine] |
